How the values were obtained:
URAT1 [1] = biological target: T1, URAT1 (Homo sapiens, UniProt Q96S37); assay: Uric acid transport inhibitory test using human URAT1-expressing cells; type: cell-based; parameters: Human URAT1 full length cDNA was subcloned to expression vector pcDNA3.1; expressed in transfected cells; host or cells: HEK293 cells (pcDNA3.1, geneticin-selected); conditions: human URAT1 expressing HEK293 cells, 14C-labeled uric acid uptake 5 min, room temperature; read-out: hURAT1 (IC50, concentration necessary for inhibiting the uric acid transport rate by 50%)
T1 sequence (Q96S37 1-553): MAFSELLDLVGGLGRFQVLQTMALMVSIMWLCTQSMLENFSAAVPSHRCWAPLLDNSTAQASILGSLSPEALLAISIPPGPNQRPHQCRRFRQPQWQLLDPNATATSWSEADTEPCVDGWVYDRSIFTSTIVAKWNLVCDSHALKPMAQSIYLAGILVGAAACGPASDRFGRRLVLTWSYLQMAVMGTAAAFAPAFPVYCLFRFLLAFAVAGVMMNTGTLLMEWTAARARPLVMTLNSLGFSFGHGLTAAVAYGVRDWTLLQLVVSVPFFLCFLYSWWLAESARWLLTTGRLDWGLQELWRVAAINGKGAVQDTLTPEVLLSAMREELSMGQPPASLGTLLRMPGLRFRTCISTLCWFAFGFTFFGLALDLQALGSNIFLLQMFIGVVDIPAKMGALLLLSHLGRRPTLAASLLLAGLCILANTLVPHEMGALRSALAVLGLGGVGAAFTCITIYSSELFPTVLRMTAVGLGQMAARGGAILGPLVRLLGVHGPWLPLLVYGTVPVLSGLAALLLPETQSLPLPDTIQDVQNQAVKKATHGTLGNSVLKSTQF
Source text: Human URAT1 full length cDNA was subcloned to expression vector pcDNA3.1 and human URAT1 gene was transfected into human embryonic kidney derived cell line (HEK293 cells) by liposome method using Lipofectamine2000. Simultaneously, HEK293 cells transfected with expression vector pcDNA3.1 alone (hereinafter mock cells) were also produced. HEK293 cells expressing human URAT1 gene or mock cells were selected with geneticin resistance as an index. The functional expression of human URAT1 gene was confirmed by a method similar to the following method, using transport of uric acid labeled with ^14C into the cells as an index.
Human URAT1 expressing HEK293 cells or mock cells were cultured in Dulbecco's modified Eagle's MEM medium (high glucose) containing 10% fetal bovine serum, 0.5 mg/mL geneticin sulfate, 100 units/mL penicillin and 100 μg/mL streptomycin under the conditions of 37° C. and 5% CO2 in an incubator. The cells were plated in a 96 well plate (poly-D-Lysine coated) at 1×10^5 cells/well and the following uric acid transport inhibitory test was performed 24 hr later. This test was performed at room temperature.
After the medium was removed by aspiration from each well, the cells were washed once with Hank's Balanced Salt Solution (HBSS) and preincubated with HBSS ([…]) for 5 min. HBSS was aspirated and an assay buffer (wherein NaCl in the above-mentioned HBSS had been substituted with Na-gluconate) containing various concentrations of the Example compound and a radioactive ligand (uric acid labeled with 14C; final concentration […]) was added to each well at […] and an uptake reaction was carried out for 5 min. After the reaction, the cells were washed twice with ice-cold HBSS ([…]), and Microscin ti TM 20 (PerkinElmer) was added at […]. The cells were lysed by stirring and the radioactivity of each well was measured in a liquid scintillation counter (TOP COUNT, Packard).
The uric acid transport rate (%) of the Example compound at each concentration was calculated relative to the radioactivity (difference in radioactivity between human URAT1 expressing HEK293 cells and mock cells without addition of Example compound (DMSO addition)) showing URAT1 specific uric acid transport as 100%, and the concentration (IC50) of the Example compound necessary for inhibiting the uric acid transport rate by 50% was determined. In Table-Table , “+++” means IC50 value of less than 100 nM, “++” means IC50 value of 100 nM to less than 1000 nM, and “+” means IC50 value of 1000 nM to less than 3000 nM.

CYP2C9 = biological target: T2, CYP2C9 (Homo sapiens, UniProt P11712); assay: CYP inhibitory test using human liver microsome; type: in vitro ADME; conditions: model substrate diclofenac, 37° C. 10 min, read-out: CYP2C9 inhibition IC50
T2 construct: Human liver microsome (20 mg protein/mL, 5 μL, Xenotech LLC, purchased from Lenexa KS); tissue Xenotech LLC; host or cells: human liver microsome
Method in brief: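 Pooled human liver microsomes in 100 mM potassium phosphate pH 7.4 with NADPH-regenerating system, preincubated with compound 5 min at 37 °C; diclofenac as CYP2C9 substrate (2 mM stock), 10 min at 37 °C. Metabolite quantified by LC/MS/MS; IC50 relative to DMSO-only activity as 100%.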

CYP3A4 = CYP3A4 (Homo sapiens, UniProt P08684); conditions: cited from earlier work
CYP2C19 = CYP2C19 (Homo sapiens, UniProt P33261); conditions: cited from earlier work
CYP2C8 = biological target: T3, CYP2C8 (Homo sapiens, UniProt P10632); conditions: cited from earlier work
T3 sequence (P10632 1-490): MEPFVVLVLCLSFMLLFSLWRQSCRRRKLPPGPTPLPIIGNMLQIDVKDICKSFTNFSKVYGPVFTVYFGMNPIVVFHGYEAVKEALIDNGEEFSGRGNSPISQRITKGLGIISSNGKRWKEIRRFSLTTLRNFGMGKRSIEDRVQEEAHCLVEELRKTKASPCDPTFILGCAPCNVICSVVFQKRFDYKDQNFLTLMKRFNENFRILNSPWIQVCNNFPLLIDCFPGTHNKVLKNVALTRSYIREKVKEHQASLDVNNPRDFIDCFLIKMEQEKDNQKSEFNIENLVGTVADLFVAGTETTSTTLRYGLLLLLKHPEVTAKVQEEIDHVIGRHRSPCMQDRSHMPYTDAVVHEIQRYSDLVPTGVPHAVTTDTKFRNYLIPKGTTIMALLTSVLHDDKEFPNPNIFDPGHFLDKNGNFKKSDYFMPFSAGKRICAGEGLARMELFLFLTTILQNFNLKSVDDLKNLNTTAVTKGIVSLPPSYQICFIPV

URAT1 [2] = biological target: T1, URAT1; parameters: host or cells: Xenopus laevis oocyte expression system; conditions: Xenopus laevis oocyte expression system; cited from earlier work

T2 sequence (P11712 whole entry): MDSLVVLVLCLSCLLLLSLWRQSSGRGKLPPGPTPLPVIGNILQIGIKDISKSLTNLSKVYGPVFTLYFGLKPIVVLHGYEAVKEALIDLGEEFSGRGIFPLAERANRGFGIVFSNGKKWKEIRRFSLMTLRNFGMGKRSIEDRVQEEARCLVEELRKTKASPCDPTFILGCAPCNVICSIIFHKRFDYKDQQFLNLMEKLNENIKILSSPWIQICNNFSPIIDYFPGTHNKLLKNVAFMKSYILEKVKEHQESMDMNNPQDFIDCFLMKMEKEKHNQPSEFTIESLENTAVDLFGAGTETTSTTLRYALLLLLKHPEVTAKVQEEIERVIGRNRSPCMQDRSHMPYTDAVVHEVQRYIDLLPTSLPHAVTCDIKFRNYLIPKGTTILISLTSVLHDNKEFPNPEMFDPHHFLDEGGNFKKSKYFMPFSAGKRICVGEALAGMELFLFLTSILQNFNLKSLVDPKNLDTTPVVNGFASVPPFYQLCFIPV
Sequence of CYP3A4 (P08684 whole entry): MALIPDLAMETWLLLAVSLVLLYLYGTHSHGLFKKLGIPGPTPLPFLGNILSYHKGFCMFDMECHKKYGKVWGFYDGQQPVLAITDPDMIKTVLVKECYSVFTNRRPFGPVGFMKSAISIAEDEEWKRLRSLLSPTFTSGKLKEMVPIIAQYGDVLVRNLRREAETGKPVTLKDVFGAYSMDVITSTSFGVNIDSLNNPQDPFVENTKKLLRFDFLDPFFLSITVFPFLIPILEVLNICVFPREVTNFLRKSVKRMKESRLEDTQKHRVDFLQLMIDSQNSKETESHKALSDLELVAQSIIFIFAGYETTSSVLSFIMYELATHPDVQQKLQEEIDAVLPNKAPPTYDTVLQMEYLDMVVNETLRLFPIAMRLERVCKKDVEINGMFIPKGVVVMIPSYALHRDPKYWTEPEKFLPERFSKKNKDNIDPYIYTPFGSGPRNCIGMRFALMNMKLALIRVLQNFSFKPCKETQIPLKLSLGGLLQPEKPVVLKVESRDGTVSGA
Sequence of CYP2C19 (P33261 whole entry): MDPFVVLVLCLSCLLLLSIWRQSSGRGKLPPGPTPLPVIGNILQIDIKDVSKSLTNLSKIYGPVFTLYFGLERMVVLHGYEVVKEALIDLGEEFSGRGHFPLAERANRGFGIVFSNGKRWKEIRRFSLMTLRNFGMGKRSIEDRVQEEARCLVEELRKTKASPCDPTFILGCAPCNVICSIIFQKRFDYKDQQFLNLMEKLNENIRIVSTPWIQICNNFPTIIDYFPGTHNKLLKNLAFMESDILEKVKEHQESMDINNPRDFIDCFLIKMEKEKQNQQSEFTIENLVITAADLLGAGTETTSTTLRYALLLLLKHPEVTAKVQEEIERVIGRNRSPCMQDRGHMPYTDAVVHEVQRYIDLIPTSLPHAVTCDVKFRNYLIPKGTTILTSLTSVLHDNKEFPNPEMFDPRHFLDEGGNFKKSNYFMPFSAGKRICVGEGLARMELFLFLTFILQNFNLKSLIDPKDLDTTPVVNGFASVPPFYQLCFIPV

IC50 (URAT1 [1]) [µM] | IC50 (CYP2C9) [µM] | SMILES | also measured
1 to 3 | 39 | O=C(c1cc(Cl)c(O)c(Cl)c1)N1CC[S+]([O-])c2ccccc21 (stereo not shown) [Example 9, (3,5-dichloro-4-hydroxyphenyl)-(1-oxo-2,3-dihydro-1H-1λ^4-benzo[1,4]thiazin-4-yl)-methanone] | 
0.1 to 1 | 24 | Nc1c(Cl)cc(C(=O)N2CCOc3ccccc32)cc1Cl [Example 28, (4-amino-3,5-dichlorophenyl)-(2,3-dihydrobenzo[1,4]oxazin-4-yl)-methanone] | 
0.1 to 1 | 6 | CS(=O)(=O)Nc1c(Cl)cc(C(=O)N2CCOc3ccccc32)cc1Cl [Example 94, N-[2,6-dichloro-4-(2,3-dihydrobenzo[1,4]oxazine-4-carbonyl)phenyl]methanesulfonamide] | 
 | > 50 | O=C(c1cc(Cl)c(O)c(Cl)c1)N1CCCOc2ccccc21 [Example 95, (3,5-dichloro-4-hydroxyphenyl)-(7,8-dihydro-6H-5-oxa-9-azabenzocyclohepten-9-yl)-methanone] | 

More lines, now with the values behind:

SMILES | IC50 (URAT1 [1]) [µM] | IC50 (CYP2C9) [µM] | also measured
CC1Cc2ccccc2N1C(=O)c1cc(Cl)c(O)c(Cl)c1 (stereo not shown) [Example 76, (3,5-dichloro-4-hydroxyphenyl)-(2-methyl-2,3-dihydroindol-1-yl)-methanone] | 0.1 to 1 | 28 | 
CC1COc2ccccc2N1C(=O)c1cc(Cl)c(O)c(Cl)c1 (stereo not shown) [Example 93, (3,5-dichloro-4-hydroxyphenyl)-(3-methyl-2,3-dihydrobenzo[1,4]oxazin-4-yl)-methanone] | 0.1 to 1 | > 50 | 
CCc1oc2ccccc2c1C(=O)c1cc(Br)c(O)c(Br)c1 [benzbromarone] |  |  | inhibitory action on CYP3A4 (CYP3A4): strong inhibitory action; inhibitory action on CYP2C19 (CYP2C19): strong inhibitory action; inhibitory action on CYP2C8 (CYP2C8): strong inhibitory action; uric acid uptake via URAT1 (URAT1 [2]): inhibited
CCCN(CCC)S(=O)(=O)c1ccc(C(=O)O)cc1 [probenecid] |  |  | uric acid uptake via URAT1 (URAT1 [2]): inhibited
